Assay results as given in patent publication US11752157B2, “Oxytocin receptor antagonist therapy in the luteal phase for implantation and pregnancy in women undergoing assisted reproductive technologies” (Ferring B.V., priority 2014, dated 2023).
Where a SMILES comes first, the peptide text is derived from it. Bridges are numbered along the chain shown (N, C = ends). [ ]: non-standard residue; d: D form. Orn = NCCC[C@H](N)C(=O)O; Mpa = O=C(O)CCS

Legend:
[1] = test system: IVF/ICSI patients; settings: cited from earlier work
[2] = test system: IVF/ICSI patients; assay: BASIC randomized, placebo-controlled, double-blind clinical trial: barusiban subcutaneously on the day of transfer, implantation in IVF/ICSI patients; format: in vivo, human
Source text: Example 1: A randomized, placebo-controlled, double-blind, parallel groups, multinational, multicenter trial assessing the effect of barusiban administered subcutaneously on the day of transfer on implantation and pregnancy rates in IVF/ICSI patients
BASIC was a randomized, double-blind, placebo-controlled, parallel groups, multinational, multicenter trial. It was designed to evaluate the effects of barusiban, administered either on the day of cleavage-stage embryo transfer or on the day of blastocyst transfer, on ongoing implantation rate in IVF/ICSI patients. The patients underwent controlled ovarian stimulation in the long GnRH agonist or GnRH antagonist protocol, received hCG for triggering of final follicular maturation, had undergone oocyte retrieval, and had daily luteal phase support by supplementation with vaginal progesterone starting on day 1 post-retrieval, and transfer on day 3 or 5 post-retrieval. Patients were randomized in a 1:1 ratio to either the barusiban group or the placebo group, with stratification according to the day of transfer (day 3 post-retrieval or day 5 post-retrieval) and the number of embryos/blastocysts to be transferred (1 or 2). In total, 255 IVF/ICSI patients were randomized in the trial and contributing with 440 embryos/blastocysts.
Investigational medicinal product, i.e., barusiban or placebo according to randomization, was administered as subcutaneous injections at two time points: 1st administration of 40 mg barusiban or placebo was […] prior to transfer and the 2nd administration of 10 mg barusiban or placebo was […] after the 1st administration.
Transfer was performed on day 3 (cleavage-stage embryos) or day 5 (blastocysts) after oocyte retrieval. On day 3, only embryos of good quality defined as ≥6 blastomeres and ≤20% fragmentation were transferred. On day 5, blastocysts with expansion and hatching status 3, 4, 5 or 6 were transferred. The actual number of transferred embryos/blastocysts for each individual patient depended on the availability of embryos; blastocysts of the required morphological quality, local regulations and clinical practice for the patient's age, but the maximum number was 2.
Key aspects related to the transfer procedure had been standardized. A speculum was inserted into the vagina and cleaning of the vagina and cervix was done according to local practices but with minimal manipulation and disturbance. Soft or ultrasoft catheters were used. The outer sheath of the catheter was inserted just protruding to the internal os (i.e. keeping the outer sheath in the cervical canal). The embryo(s)/blastocyst(s) were loaded into the inner sheath which was then inserted through the outer sheath. Using abdominal ultrasound guidance, the embryo(s)/blastocyst(s) were placed 1.5-2.0 cm from the fundus. The time from loading the inner catheter to placing the embryo(s)/blastocyst(s) should not have exceeded 1 min. After placement, the inner and outer catheters were withdrawn and checked for retained embryo(s)/blastocyst(s), mucus and blood. After confirmation that there were no embryo(s)/blastocyst(s) left in the catheters, the speculum was subsequently removed; this occurred approximately within 2 min after placement of the embryo(s)/blastocyst(s). Any difficulties/eventualities occurring during the transfer procedure were recorded.
Patients received vaginal progesterone tablets 100 mg twice daily from the day after oocyte retrieval and until the day of the clinical pregnancy visit. On the day of transfer, patients should insert the progesterone tablets at least 3 hours before transfer and at least 3 hours after transfer. Ongoing implantation rate (primary endpoint) was defined as the number of intrauterine viable fetuses 10-11 weeks after transfer divided by number of embryos/blastocysts transferred. […]

Row | Compound | increase in implantation or live birth rates compared to placebo ([1]; administration on day 2 or day 3 post-retrieval (early luteal phase)) | live birth rate ([1]; cleavage-stage embryo transfer on day 2 or day 3 post-retrieval, N=800, placebo 38.0%) [%] | effect on improving ongoing implantation rate ([2]; blastocyst transfer on day 5 (receptive stage), p=0.0270) | odds ratio for ongoing implantation rate ([2]; blastocyst transfer on day 5 post-retrieval, vs placebo, CI 1.1-4.7, p=0.0270) | relative Δ of ongoing implantation rate vs placebo ([2]; blastocyst transfers (day 5), adjusted means 45% vs 27%) [%] | adjusted mean of ongoing implantation rate ([2]; blastocyst transfers (day 5 post-retrieval), placebo 27%) [%] | effect on ongoing implantation rate ([2]; cleavage-stage embryo transfer on day 3 (pre-receptive stage)) | odds ratio for ongoing implantation rate ([2]; cleavage-stage embryo transfer on day 3 post-retrieval, vs placebo, CI 0.3-1.2, p=0.1509) | odds ratio for ongoing implantation rate ([2]; overall (day 3+day 5), barusiban vs placebo, logistic regression, PP, 95% CI 0.7-1.8, p=0.6960) | observed overall ongoing implantation rate ([2]; overall (day 3+day 5 transfers), per-protocol population, 40 mg + 10 mg s.c. on day of transfer) [%] | ongoing implantation rate ([2]; overall, intention-to-treat (ITT) population) [%]
1 | CCOc1ccc(C[C@H]2NC(=O)CCSSC[C@@H](C(=O)N3CCC[C@H]3C(=O)N[C@@H](CCCN)C(=O)NCC(N)=O)NC(=O)[C@H](CC(N)=O)NC(=O)[C@H]([C@@H](C)O)NC(=O)[C@H]([C@@H](C)CC)NC2=O)cc1 [atosiban, 1-(3-mercaptopropanoic acid)-2-(O-ethyl-D-tyrosine)-4-L-threonine-8-L-ornithine-oxytocin] ([Mpa][dY](Et)ITNCP[Orn]G-NH2; disulfide 1-6) | no significant increase | 39.8 | – | – | – | – | – | – | – | – | –
2 | barusiban | – | – | significant | 2.3 | 67 | 45 | No effect | 0.3 | 1.1 | 27.1 | 26.2
